Values of other authors as cited in patent US20080286343A1, “Solid form” (priority 2007, published 2008).

Settings: g water per 1 g active; slightly soluble

## Cn1c(=O)c2[nH]cnc2n(C)c1=O [Theophylline]
  Solubility in water (1 g in ... g water): 100-1000 g water
